Data on four compounds can be found in patent US11045519B2, “Arginine-rich polypeptide compositions and methods of using same” (UNM Rainforest Innovations, priority 2017, dated 2021).

Where a SMILES comes first, the peptide text is derived from it. Where no end group is shown, it is not given here. The star is where a group is joined. Decanoyl = CCCCCCCCCC(=O)*; CH2Cl = ClC*

Test [1] has as its system HPV16 pseudovirions (PsVs). The test is described as follows: HPV16 PsV luciferase infectivity assay, HaCaT cells pretreated with peptide. It counts as cell-based. The following applies: 24 h; for inhibition of HPV16 PsV infection: 6 μM, 30 min pretreatment of HaCaT cells, 300 vge/cell.
Experimental: HaCaT cells were cultured in complete growing medium (CM; Dulbecco's modified Eagle's medium nutrient mixture F-12 HAM (Sigma-Aldrich, St. Louis, Mo.)) supplemented with 10% fetal bovine serum (FBS), amino acids (Sigma-Aldrich, St. Louis, Mo.), 2 mM L-glutamine, 100 U/ml penicillin and 1 μg/ml streptomycin (Sigma-Aldrich, St. Louis, Mo.), as previously described (Patterson et al., 2005. J Virol 79:6838-6847). Semi-confluent cells were pretreated for 30 minutes with arginine-rich peptides dissolved in CM (6 μM gp91dstat, gp91dstat (scramble), R9, and TAT, or 3 polyR) before the exposure to HaCaT cells and 300 vge/cell HPV16 pseudovirions (PsVs) packaging a luciferase reporter plasmid. Infectivity was scored after 24 hours of incubation at 37° C. (i.e., post infection) by Lumat LB9501 (Berthold Technologies GmbH & Co KG, Bad Wildbad, Germany) equipment, using the luciferase assay kit (Promega, Madison, Wis.) according to manufacturer's specification. Raw data were normalized to total cellular protein concentration. Graph summarizes triplicate treatments; error bars represent SEM.
Fifty percent inhibitory concentration (IC50) of HPV16 PsV infection of HaCaT cells by the compounds. For generation of an inhibitory concentration 50 (IC50) curves, cells were pretreated with the indicated concentration of arginine-rich peptides prior to HPV16 PsV exposure. Infectivity was scored after 24 hours of incubation at 37° C. and the data from two independent duplicate experiments were pooled and analyzed using non-linear regression (curve fit) function of PRISM software (GraphPad Software, Inc., LaJolla, Calif.).
Semi-confluent HaCaT cells maintained in CM, were pretreated for one hour with PrS dissolved in CM at the 0-5.8 μM concentrations before exposure to HPV16 PsVs (350 vge/cell). Infectivity was scored after 24 hours of incubation at 37° C. using a luminometer (Lumat LB9501, Berthold GmbH & Co., Bad Wildbad, Germany) and luciferase assay (Promega, Madison, Wis.) according to manufacturer's specification. Raw data were normalized to total cellular protein concentration.
For generation of an inhibitory concentration 50 (IC50) curve for PrS inhibition, data from two independent duplicate experiments was pooled and analyzed using the non-linear regression (curve fit) function of PRISM (GraphPad Software, Inc., La Jolla, Calif.).
3 μM PrS incubated for one hour at room temperature with 2 mg/ml high or low molecular weight HA in CM, prior to the addition to HaCaT cells. 350 vge/cell HPV16 PsVs were used for infection of cells in the presence or absence of PrS or HA:PrS complex. Infection was scored after 24 hours as described in FIG. 12.
HaCaT cells were pretreated with 6 μM concentrations of gp91dstat, gp91dstat (scramble), R9, or TAT, or 3 μM polyR. After 30 minutes of incubation at 37° C., cells were infected with HPV16 pseudovirions (PsVs) at a dose of 300 viral genome equivalents (vge)/cell, and the relative infectivity was quantified after 24 hours compared to infection in untreated cells (FIG. 1). Each treatment was performed in triplicate.
To evaluate the anti-HPV activity of PrS, HaCaT cells, a keratinocyte-derived cell line, was used as a model for analysis of HPV infection. […]
Infections were initiated using Luciferase-expressing HPV16 PsVs that were produced, isolated, and quantified as described previously (Surviladze et al., 2012. PLoS Pathogens 8: e1002519; Campos S K and Ozbun M A, 2009. PloS One 4:e4463). […]
Test [2] concerns HPV16 PsVs. The test is described as follows: Direct pre-incubation of HPV16 PsVs with peptide, dilution below IC50, then infection of HaCaT cells. It counts as cell-based. The following applies: 1 μM, 1 h 37° C., diluted below IC50, HaCaT cells 24 h. The protocol: FIG. 3. […] HPV16 PsVs were incubated with 0.3 μM polyR for one hour at 37° C. The virus-polyR mixture was diluted with CM to reduce the polyR concentration below the IC50 value prior to incubation with HaCaT cells for 24 hours (HPV16-polyR). The control included untreated HPV16 PsVs (HPV16) added to HaCaT cells. Infection was measured after 24-hour incubation.
FIG. 15. Direct interaction of PrS to HPV16 PsVs. HPV16 PsVs were incubated with 1 μM PrS or HA:PrS complex for one hour at 37° C. Virus-PrS/or HA:PrS mixture was diluted with CM in order to reduce the PrS concentration below the IC50 value, and incubated with HaCaT cells for 24 hours. The control included untreated HPV16 PsVs. Infection was measured after 24 hours incubation as described in FIG. 12.
Typically, direct interaction of cationic inhibitors with the viral capsids of non-enveloped viruses (including HPV) is sufficient for antiviral activity. To determine whether polyR inhibited HPV16 infectivity by direct interaction with viral capsids, HPV16 PsVs were incubated with […] for one hour at 37° C. The virus-polyR mixture was diluted 1500-fold to reduce the polyR concentration below the IC50 value, then incubated with HaCaT cells. The control included cells exposed to HPV PsVs that were not treated with polyR. […]

Test [3] relates to HPV16 PsVs. The test is described as follows: HPV16 PsV binding to HaCaT cells at 4° C. (L1 immunoblot / immunofluorescence). The test is classed as cell-based. The following applies: 4° C. 1 h. As for the experimental part:
FIG. 4. PolyR treatment of host cells inhibits HPV16 binding to cells. (A) Confluent HaCaT cell monolayers were treated with 1 μM polyR (in CM) for 30 minutes, before adding 100 vge/cell HPV16 PsVs, and incubated at 4° C. for one hour (to promote binding but prevent virus internalization). After washing out of unbound virus, cells were lysed (25 mM Tris pH7.5, 150 mM NaCl, 1% Triton-X100 supplemented with protease inhibitors) and centrifuged at 16,000×g for 10 minutes. Protein concentrations in supernatant were measured using the Bradford method (Bio-Rad Laboratories, Inc., Hercules, Calif.). Samples were boiled in SDS-containing sample buffer, and aliquots containing equal amount of protein ([…] to 200 μg) separated by SDS-polyacrylamide gel electrophoresis (SDS-PAGE), using 10% gel. Proteins were transferred onto polyvinylidene difluoride (PVDF) membranes and subjected to analysis using anti-HPV16 L1 primary antibody (Camvir-1, sc-47699, Santa Cruz Biotechnology, Inc., Dallas, Tex.;1:5000 dilution) for detection of HPV16 major capsid protein, L1. Proteins were visualized by enhanced chemiluminescence (SUPERSIGNAL West Pico Chemiluminescent Substrate, Thermo Fisher Scientific, Inc., Waltham, Mass.) and exposed to film (Phenix Research Products, Candler, N.C.). (B) Immunofluorescence assays were performed essentially as described previously (Surviladze et al., 2012. PLoS Pathogens 8:e1002519). HaCaT cells were grown on coverslips at approximately 50% confluence and treated with 3 μM polyR for 30 minutes at 37° C. before the addition of 1000 vge of HPV16 PsVs per coverslip. Cells were incubated for one hour at 4° C. and washed several times with PBS, before the fixation with 4% paraformaldehyde (PFA). BSA-blocked cells were incubated with rabbit polyclonal HPV16 antibody (antibody was affinity-purified from rabbit anti-HPV VLP antisera). PBS-washed slides were incubated with donkey AF488-conjugated anti-rabbit IgG secondary antibody; phalloidin-rhodamine (Cytoskeleton, Inc., Denver, Colo.) was used for actin staining. After extensive washing with PBS, cells were mounted in Gold Antifade and immunofluorescent (IF) images were captured by confocal photo-microscopy.
(§1) (A) HPV16 PsVs were bound to HaCaT cells (one hour at 4° C.), before the addition of […]. After a one-hour incubation at 4° C., unbound virus was washed out, cells were lysed and analyzed for the content of HPV L1 protein. (B) HaCaT cells were exposed to HPV 16 PsV at 4° C. in the absence of polyR, simultaneously with polyR (0 h), or one hour after polyR treatment (+1 h). After extensive washing with PBS, cells were lysed and analyzed for the content of HPV16 L1 protein.
FIG. 16. PrS pretreated cells binding of HPV16. Confluent HaCaT cell monolayers were treated with 1 μM PrS (in CM) before the addition of 200 vge/cell HPV16 PsVs and incubated at 4° C. for one hour (conditions to prevent virus internalization). After washing out of unbound virus, cells were lysed (25 mM Tris pH7.5, 150 mM NaCl, 1% Triton-X100 supplemented with protease inhibitors) and centrifuged at 16,000×g for 10 minutes. Protein concentrations in supernatant were measured using the Bradford method (Bio-Rad Laboratories, Inc., Hercules, Calif.). Samples were boiled in SDS-containing sample buffer, and aliquots containing equal amount of protein (˜50 μg to 200 μg) separated by SDS-polyacrylamide gel electrophoresis (SDS-PAGE) using 10% gel. […]

For test [4], the system named is HPV16 PsVs. The test is described as follows: Dissociation of cell-bound HPV16 PsVs from HaCaT cells (L1 immunoblot). The test is classed as cell-based. The following applies: 5 μM added to HPV-bound HaCaT cells, 1 h 4° C. The protocol: as §1
FIG. 19. […] HPV16 PsVs were bound to HaCaT cells (one hour in cold), before the addition of 5 μM PrS. After a one-hour incubation at 4° C., unbound virus was washed out, cells were lysed, and HPV L1 protein content was measured as described in FIG. 16.
To determine whether polyR could cause HPV16 dissociation from cells, HPV16 PsVs were bound to HaCaT cells for one hour at 4° C. After washing away unbound virus, HPV-bound cells were incubated with 3 μM polyR for one hour at 4° C.; control cells were untreated. Cells were lysed and analyzed for HPV L1 protein content. […]
The post-attachment inhibitory effects of PrS could be due the displacement of capsids from the cell surface. […] After a one-hour incubation at 4° C., unbound virus was washed out, cells were lysed, and the HPV L1 protein content was analyzed.

Another test addresses T1, recombinant His-furin (Homo sapiens, UniProt P09958).
T1 construct: His
In words: Furin cleavage of HPV16 L2 capsid protein (immunoblot). It counts as biochemical. The following applies: 30 μM, 3 nM His-furin, 2 h 37° C. As for the experimental part:
FIG. 9. PolyR inhibits HPV16 L2 protein cleavage by furin and induces accumulation of internalized virus particles in late endosomal fraction. (A) Equal amount of HPV16 diluted in 50 μl furin assay buffer (1 mM CaCl2), 100 mM HEPES, 0.5% Triton X-100, 1 mM β-mercaptoethanol) was loaded into six tubes, […], in the presence of 1.3 μM furin inhibitor1 (Merck Millipore Corp., Burlington, Mass.), or 1 μM polyR. Samples were mixed with SDS-PAGE sample buffer and boiled before fractionation on 9% gel. Proteins were transferred onto PVDF membranes and after blocking, incubated with affinity-purified rabbit anti-HPV16 polyclonal antibody. Secondary donkey anti-rabbit horseradish peroxidase-coupled antibody was used for detection of HPV16 capsid proteins. (B) HaCaT cells grown on coverslips were incubated with HPV16 PsVs for one hour at 37° C. to initiate virus binding (and partial internalization) before adding 1 μM polyR and further incubated for seven hours. […]
Cleavage of the L2 minor capsid protein by the cellular pro-protein convertase, furin, is an essential step in infectious entry of HPVs. […] After two hours of incubation, HPV16 cleavage was assessed by immunoblotting using anti-HPV 16 polyclonal antibody. […]
Background: Immunoblotting shows a protein as a band on a membrane.

T1 sequence (P09958 108-794): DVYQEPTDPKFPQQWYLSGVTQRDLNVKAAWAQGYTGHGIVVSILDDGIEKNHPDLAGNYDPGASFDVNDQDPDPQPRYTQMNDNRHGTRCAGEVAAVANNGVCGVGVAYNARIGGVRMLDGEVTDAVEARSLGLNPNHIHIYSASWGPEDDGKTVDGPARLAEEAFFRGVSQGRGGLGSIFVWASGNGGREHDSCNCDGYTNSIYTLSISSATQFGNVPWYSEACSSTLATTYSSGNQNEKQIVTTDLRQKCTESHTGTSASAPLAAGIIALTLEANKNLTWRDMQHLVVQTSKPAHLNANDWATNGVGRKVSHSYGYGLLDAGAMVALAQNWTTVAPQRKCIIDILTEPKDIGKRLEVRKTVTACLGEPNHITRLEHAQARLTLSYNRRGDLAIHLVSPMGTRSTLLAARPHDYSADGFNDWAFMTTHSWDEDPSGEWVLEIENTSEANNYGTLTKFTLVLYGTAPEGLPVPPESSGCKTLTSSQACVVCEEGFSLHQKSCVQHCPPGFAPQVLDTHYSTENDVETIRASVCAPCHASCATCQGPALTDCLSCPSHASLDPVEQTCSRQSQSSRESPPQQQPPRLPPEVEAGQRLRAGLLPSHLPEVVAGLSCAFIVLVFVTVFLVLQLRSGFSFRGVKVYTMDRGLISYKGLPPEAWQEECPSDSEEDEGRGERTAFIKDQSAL

For the compound `N=C(N)NCCC[C@H](NC(=O)[C@H](CCCNC(=N)N)NC(=O)[C@H](CCCNC(=N)N)NC(=O)[C@H](CCCNC(=N)N)NC(=O)[C@H](CCCNC(=N)N)NC(=O)[C@H](CCCNC(=N)N)NC(=O)[C@H](CCCNC(=N)N)NC(=O)[C@H](CCCNC(=N)N)NC(=O)[C@@H](N)CCCNC(=N)N)C(=O)O` [R9, arginine nonapeptide], the “inhibition of HPV16 PsV infection” value in test [1] is listed as 66%.

As a reminder, the IC50 is the concentration needed to halve the response being measured. Turning to “protamine sulfate (MPRRRRSSSRPVRRRRRPRVSRRRRRRGGRRRR; also: sulfate salt; listed as Oncorhynchus keta) [PrS, sulfate form of salmon protamine, FDA approved arginine-rich polypeptide, reference compound]”, the IC50 in test [1] (1 h pretreatment, 350 vge/cell, read-out: IC50 of HPV16 infection in HaCaT cells) is around 100 nM. Moreover, the “effect of pre-incubation of HPV16 PsVs on infection” value in the test with HPV16 PsVs [2] is listed as “does not inhibit infection”. In addition, the “HPV16 binding to pretreated cells (L1 Western blot)” value with HPV16 PsVs [3] (1 μM in CM, 200 vge/cell) is listed as “almost completely blocked HPV16 binding”. Moreover, in the test with HPV16 PsVs [3] (pH 4.5, 2 μM PrS (complex: 0.1% HMW HA:2 μM PrS)), the “inhibition of HPV16 binding at acidic conditions” value is given as 60%. Moreover, the “release of HPV16 from membrane” value with HPV16 PsVs [4] is recorded as “did not induce HPV16 release from membrane”.

As to “TAT: YGRKKRRQRRR; arginine-rich fragment of the HIV transactivator protein”, in test [1], the “inhibition of HPV16 PsV infection” value was 44%.

Consider `CCCCCCCCCC(=O)N[C@@H](CCCN=C(N)N)C(=O)N[C@H](C(=O)N[C@@H](CCCCN)C(=O)N[C@@H](CCCN=C(N)N)C(=O)CCl)C(C)C` [FI, reference compound] (Decanoyl-RVKR-CH2Cl), for which, on recombinant His-furin, the “furin cleavage of L2 capsid protein” value is “inhibited cleavage of the L2 capsid protein”.
